Data: PMC4995097, “Talin-KANK1 interaction controls the recruitment of cortical microtubule stabilizing complexes to focal adhesions” (eLife, 2016)

What was measured:
Format in all cases: cell-based, human
[1] = tested on: LL5β at the cell edge of HeLa cells; test: Peripheral clustering of LL5β; conditions: talin1/2-depleted HeLa rescue (Fig 4G); mean, n = 12, SEM 4.85049
Experimental: (§1) HeLa Kyoto cell line was described previously ([Lansbergen et al., 2006]; [Mimori-Kiyosue et al., 2005]). HEK293T cells were purchased from ATCC; culture and transfection of DNA and siRNA into these cell lines was performed as previously described ([van der Vaart et al., 2013]). HaCaT cells were purchased at Cell Line Service (Eppelheim, Germany) and cultured according to manufacturer’s instructions. The cell lines were routinely checked for mycoplasma contamination using LT07-518 Mycoalert assay (Lonza, Switzerland).The identity of the cell lines was monitored by immunofluorescence-staining-based analysis with multiple markers. Blebbistatin was purchased from Enzo Life Sciences and used at 50 μM. Serum starvation in HeLa cells was done for 48 hr and focal adhesion assembly was stimulated by incubation with fetal calf serum-containing medium with or without blebbistatin for 2 hr. ROCK1 inhibitor Y-27632 was purchased at Sigma-Aldrich and used at 1 or 10 μM. Double stable HeLa cell line expressing GFP-KANK1 and TagRFP-paxillin was made by viral infection. We used a pLVIN-TagRFP-paxillin-based lentivirus and a pQC-GFP-KANK1-based retrovirus packaged in HEK293T cells using respectively Lenti-X HTX packaging and pCL-Ampho vectors. Antibiotic selection was applied to cells 48 hr after infection using 500 μg/ml G418 (Geneticin, Life Technologies) and 1 μg/ml puromycin (InvivoGen).
(§2) Antibodies against HA and GFP tags, and liprin β1 used for Western blot analysis were previously described ([van der Vaart et al., 2013]). Rabbit antibodies against KANK1 (HPA005539) and KANK2 (HPA015643) were purchased at Sigma-Aldrich. Western blot analysis of KANK1 was performed using rabbit polyclonal KANK1 antibody (A301-882A) purchased at Bethyl Laboratories. Talin immunofluorescence staining was performed using mouse monoclonal 8d4 antibody (Sigma-Aldrich). Western blot analysis of talin 1 and 2 expression was performed using respectively the isotype specific mouse monoclonal 97H6 (Sigma-Aldrich) and 68E7 (Abcam) antibodies. Ku80 (7/Ku80) antibody was purchased from BD Biosciences. Immunofluorescence staining of KANK1, LL5β, liprin β1, KIF21A and CLASP2 in HeLa and HaCaT cells was performed using the antibodies and procedures previously described ([Lansbergen et al., 2006]; [van der Vaart et al., 2013]). F-actin was stained using Alexa Fluor 594-conjugated phalloidin (Life Technologies). Phospho-tyrosine mouse antibody (PT-66) was purchased from Sigma-Aldrich and rabbit FAK phospho-tyrosine 397 was purchased from Biosource.
(§3) Fixed samples and corresponding immunofluorescence images were acquired using widefield fluorescence illumination on a Nikon Eclipse 80i or Ni upright microscope equipped with a CoolSNAP HQ2 CCD camera (Photometrics) or a DS-Qi2 camera (Nikon) an Intensilight C-HGFI precentered fiber illuminator (Nikon), ET-DAPI, ET-EGFP and ET-mCherry filters (Chroma), Nikon NIS Br software, Plan Apo VC 100x NA 1.4 oil, Plan Apo Lambda 100X oil NA 1.45 and Plan Apo VC 60x NA 1.4 oil (Nikon) objectives. […]

HeLa cells = test: Cell area, attachment and spreading; set-up: AV Cell Area: unit not given here
Experimental: as §1
(§4) For presentation, images were adjusted for brightness and processed by Gaussian blur and Unsharp mask filter using ImageJ 1.47v (NIH). Fluorescence profiles are values measured by line scan analysis in ImageJ, normalized by background average fluorescence, expressed as a factor of the baseline value obtained for individual channel and plotted as a function of maximum length factor of the selection line (distance ratio). Protein clustering at the cell edge is the ratio of the total fluorescence in the first 5 μm from the cell edge to the next 5 μm measured by line scan analysis in ImageJ after thresholding for cell outline marking and out-of-cell region value assigned to zero. The results were plotted as percentage of control condition average value. FA counting and area measurement was performed using Analyze Particles under ImageJ on focal adhesion binary mask obtained after Gaussian blur/threshold-based cell outline marking and background subtraction (rolling ball radius, 10 pixels). KANK1/talin colocalization was analyzed using Pearson R value provided by Colocalization Analysis plugin under FiJi-ImageJ and a 3 μm diameter circular ROI centered on talin clusters detected by immunofluorescent staining.

[2] = tested on: KANK1 at the cell edge of HeLa cells; test: Peripheral clustering of KANK1
Experimental: as §1, §2
Fixed samples and corresponding immunofluorescence images were acquired using widefield fluorescence illumination on a Nikon Eclipse 80i or Ni upright microscope equipped with a CoolSNAP HQ2 CCD camera (Photometrics) or a DS-Qi2 camera (Nikon) an Intensilight C-HGFI precentered fiber illuminator (Nikon), ET-DAPI, ET-EGFP and ET-mCherry filters (Chroma), Nikon NIS Br software, Plan Apo VC 100x NA 1.4 oil, Plan Apo Lambda 100X oil NA 1.45 and Plan Apo VC 60x NA 1.4 oil (Nikon) objectives. TIRFM-based live cell imaging was performed using the setup described before ([van der Vaart et al., 2013]) or a similar Nikon Ti microscope-based Ilas^2 system (Roper Scientific, Evry, FRANCE) equipped with dual laser illuminator for azimuthal spinning TIRF (or Hilo) illumination, 150 mW 488 nm laser and 100 mW 561 nm laser, 49,002 and 49,008 Chroma filter sets, EMCCD Evolve mono FW DELTA 512x512 camera (Roper Scientific) with the intermediate lens 2.5X (Nikon C mount adapter 2.5X), CCD camera CoolSNAP MYO M-USB-14-AC (Roper Scientific) and controlled with MetaMorph 7.8.8 software (Molecular Devices). Simultaneous imaging of […] was performed as described before ([van der Vaart et al., 2013]) or using the Optosplit III image splitter device (Andor) on the Ilas^2 system.
For presentation, images were adjusted for brightness and processed by Gaussian blur and Unsharp mask filter using ImageJ 1.47v (NIH). […]

[3] = tested on: KIF21A at the cell edge of HeLa cells; test: Peripheral clustering of KIF21A; conditions: talin1/2-depleted HeLa rescue (Fig 4G); mean, n = 12, SEM 3.66709
Experimental: as §1, with “ROCK1 inhibitor Y-27632 was purchased at Sigma-Aldrich and used at 1 or 10 μM. Double stable HeLa cell line expressing GFP-KANK1 and TagRFP-paxillin was made by viral infection. We used a pLVIN-TagRFP-paxillin-based lentivirus and a pQC-GFP-KANK1-based retrovirus packaged in HEK293T cells using respectively Lenti-X HTX packaging and pCL-Ampho vectors. Antibiotic selection was applied to cells 48 hr after infection using 500 μg/ml G418 (Geneticin, Life Technologies) and 1 μg/ml puromycin (InvivoGen).” left out
as §3

[4] = tested on: focal adhesions in HeLa cells; test: FA number
Experimental: as §1, §4

[5] = tested on: microtubule plus ends in HeLa cells; test: Angles of microtubule growth relative to the cell margin; conditions: talin1/2-depleted HeLa
Experimental: nEB3-mRFP dynamics was recorded by 0.5 s interval time lapse TIRF imaging. Microtubule growth was measured using kymographs obtained from EB3-mRFP time lapse image series, plotted and presented as previously described ([van der Vaart et al., 2013]). Ratio of microtubule growth in cell center to periphery was obtained as values for individual cells. Microtubule growth trajectory angle to the cell edge was manually measured in ImageJ using tracks obtained by maximum intensity projection of EB3-mRFP image series.

For “GFP-talin1-G1404L: GFP-tagged mouse talin1 with single point mutation G1404L”, the “Peripheral clustering of LL5β, percentage of control, AV, talin rescue” value [1] was 20.7686 percentage of control condition average value, the “AV Cell Area” value (HeLa cells; HeLa, TLN1-KD, mTLN1 rescue, mean, Count 13) was 1671.82 and the “cell area (in words)” value (HeLa cells; compared to rescue with wild type GFP-talin1) was “slightly increased compared to cells rescued with the wild type GFP-talin1”. The “cell attachment and spreading (in words)” value (HeLa cells; talin1/2-depleted HeLa) was “could fully support cell attachment and spreading”, the “Peripheral clustering of KANK1, edge ratio, AV” value ([2]; talin1/2-depleted HeLa rescued with GFP-talin1 (Fig 3F), mean, n = 12) was 0.9974 and the “KANK1 distribution, talin rescue (in words)” value ([2]; talin1/2-depleted HeLa, Figure 3E,F) was “dispersed over the plasma membrane”. The “Peripheral clustering of KIF21A, percentage of control, AV, talin rescue” value [3] was 41.905 percentage of control condition average value, the “AV #FA” value ([4]; HeLa, TLN1-KD, mTLN1 rescue, mean FA number per cell, Count 12) was 55.3333 and the “number and size of focal adhesions (in words)” value ([4]; compared to rescue with wild type talin1) was “not significantly different”. The “proportion of microtubules growing parallel to the cell edge (in words)” value [5] was “greatly increased”.
